Laboratory results reported in patent publication US20230047208A1, “RNA Splicing Modulation” (The General Hospital Corporation, priority 2020, published 2023).

Experiments:
ELP1 = test: In vivo ELP1 splicing correction in humanized transgenic mouse model
[1] = system: human ELP1 gene with a Exon 20 splice mutation; test: In vivo full-length and Δ20 ELP1 mRNA by RT-qPCR in TgFD9 mice; design: species or system TgFD9 transgenic mice; conditions: oral gavage once daily for 7 days, 10, 30, 60 or 100 mg/kg
Procedure: FIGS. 7A-7G show the relative expression of full-length (FL) and Δ20 ELP1 mRNA (left panel), and ELP1 protein quantification (right panel) in brain (FIG. 7A) and liver (FIG. 7B) after oral doses of Compound (I) ranging from 10 to 100 mg/kg in adult transgenic TgFD9 mouse (n=4-6 mice in each treatment group). Comparisons were done within the same group, against the vehicle-treated mice. In the figure, *p<0.05; **p<0.01; ***p<0.001.
FIGS. 7C-E show the relative expression of full-length (FL) and Δ20 ELP1 mRNA (left graphs), and ELP1 protein quantification (right graphs) in kidney (FIG. 7C), heart (FIG. 7D) and skin (FIG. 7E) after oral doses of Compound (I) ranging from 10 to 100 mg/kg in adult transgenic TgFD9 mouse (n=4-6 mice in each treatment group). […] The levels of compound were measured using mass spectrometry. […]
Compound (I) was evaluated in vivo to determine whether splicing correction can lead to a concomitant increase in ELP1 protein. […]
Brain, liver, lung, kidney, heart and skin tissues were removed and snap frozen in liquid nitrogen. […] The yield, purity and quality of the total RNA for each sample were determined using a Nanodrop ND-1000 spectrophotometer. Full-length and mutant ELP1 mRNA expression was quantified by quantitative real-time PCR (qRT-PCR) analysis using CFX384 Touch Real-Time PCR Detection System (BioRad). […] Data were analyzed using SDS software.

## Clc1nc(NCc2ccncc2)c2cc[nH]c2n1 [Compound (I), 2-chloro-N-(pyridin-4-ylmethyl)-7H-pyrrolo[2,3-d]pyrimidin-4-amine]
ELP1
  ELP1 protein in tissues: increase of ELP1 protein in all tissues, including the brain
[1]
  full-length ELP1 transcript: increased full-length ELP1 transcript in a dose-dependent manner
